In ChEMBL document CHEMBL1135590, “Design of substrate-based inhibitors of human beta-secretase” (J Med Chem, 2002):
Starred links: 1 amine or outer side, 2 acyl side, 3 side chain; linkers in the order of their positions; H or OH if unused. Non-standard residues stand in square brackets, D forms with d. Residues, ends and D or L forms follow the SMILES beside them. ξ: configuration not given here. LeuΨ(ξCHOHCH2)Val = CC(C)C[C@H](N[*:1])C(O)C[C@H](C(=O)[*:2])C(C)C; X2 = CC(=O)O[C@@H](CC(=O)[*:2])[C@H](CC(C)C)N[*:1]; Sta(3ξ) = CC(C)C[C@H](N[*:1])C(O)CC(=O)[*:2]; X3 = CC(C)C[C@H](N[*:1])[C@H](O)CC(=O)[*:2]; X4 = O=C(CC(O)[C@H](Cc1ccccc1)N[*:1])[*:2]; X5 = O=C(CC(O)[C@H](CC1CCCCC1)N[*:1])[*:2]; Sta = CC(C)C[C@H](N)[C@@H](O)CC(=O)O; X1 = CC(C)CC(N[*:1])C(O)CC(=O)[*:2]; Tle = CC(C)(C)[C@H](N)C(=O)O

These compounds were tested against Beta-secretase 1 (Homo sapiens, UniProt P56817) (assay: Inhibition of human brain beta-secretase, using MBPC125Swe (maltose-binding-protein C-125 Swedish) assay).
Format: biochemical

Beta-secretase 1, sequence (P56817 whole entry): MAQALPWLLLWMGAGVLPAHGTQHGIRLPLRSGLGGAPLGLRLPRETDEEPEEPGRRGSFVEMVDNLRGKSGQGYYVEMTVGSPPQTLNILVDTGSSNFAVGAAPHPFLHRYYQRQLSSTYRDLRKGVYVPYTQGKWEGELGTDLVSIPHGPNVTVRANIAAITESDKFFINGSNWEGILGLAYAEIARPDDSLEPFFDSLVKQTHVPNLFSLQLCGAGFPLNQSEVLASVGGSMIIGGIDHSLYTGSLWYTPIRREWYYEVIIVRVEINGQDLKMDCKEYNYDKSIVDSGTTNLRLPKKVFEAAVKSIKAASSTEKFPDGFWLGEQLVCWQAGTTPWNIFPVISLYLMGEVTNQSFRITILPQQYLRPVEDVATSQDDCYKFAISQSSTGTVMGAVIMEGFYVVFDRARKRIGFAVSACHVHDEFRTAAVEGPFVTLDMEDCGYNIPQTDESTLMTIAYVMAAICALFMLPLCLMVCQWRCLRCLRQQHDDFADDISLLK

IC50 [µM] | Compound
0.5 | CC[C@H](C)[C@H](NC(=O)[C@H](CCC(=O)O)NC(=O)[C@H](CCC(=O)O)NC(=O)[C@@H](NC(=O)[C@@H](N)CCCCN)[C@@H](C)O)C(=O)N[C@@H](CO)C(=O)N[C@@H](CCC(=O)O)C(=O)N[C@H](C(=O)N[C@@H](CC(N)=O)C(=O)N[C@@H](CC(C)C)[C@@H](O)CC(=O)N[C@@H](C)C(=O)N[C@@H](C)C(=O)N[C@@H](CCC(=O)O)C(=O)N[C@@H](Cc1ccccc1)C(=O)O)C(C)C (H-KTEEISEVN[Sta]AAEF-OH)
3 | H-TNIKTEEISEVNLVAEFR-OH
> 200 | H-TNIKTEEISEVNHDAEFR-OH
40 | H-TNIKTEEISEVNLFAEFR-OH
5 | CSCC[C@H](NC(=O)[C@@H](NC(C)=O)C(C)C)C(=O)NC(CC(C)C)C(O)CC(=O)N[C@@H](C)C(=O)N[C@@H](C)C(=O)N[C@@H](CCC(=O)O)C(=O)N[C@@H](Cc1ccccc1)C(=O)O (some centres not stated) (Ac-VM[X1]AAEF-OH)
40 | CC[C@H](C)[C@H](NC(=O)[C@H](CCC(=O)O)NC(=O)[C@H](CCC(=O)O)NC(=O)[C@@H](NC(=O)[C@@H](N)CCCCN)[C@@H](C)O)C(=O)N[C@@H](CO)C(=O)N[C@@H](CCC(=O)O)C(=O)N[C@H](C(=O)N[C@@H](CC(N)=O)C(=O)N[C@@H](CC(C)C)[C@@H](O)CC(=O)N[C@@H](CC(=O)O)C(=O)N[C@@H](C)C(=O)N[C@@H](CCC(=O)O)C(=O)N[C@@H](Cc1ccccc1)C(=O)O)C(C)C (H-KTEEISEVN[Sta]DAEF-OH)
> 200 | H-TNIKTEEISEVNVDAEFR-OH
0.5 | CSCC[C@H](NC(=O)[C@@H](NC(C)=O)C(C)C)C(=O)N[C@@H](Cc1ccccc1)C(O)CC(=O)N[C@H](C(=O)N[C@@H](C)C(=O)N[C@@H](CCC(=O)O)C(=O)N[C@@H](Cc1ccccc1)C(=O)O)C(C)C (some centres not stated) (Ac-VM[X4]VAEF-OH)
2.5 | CC(C)C[C@H](NC(=O)[C@H](CC(N)=O)NC(=O)[C@H](C)NC(=O)[C@@H](N)CCC(=O)O)C(O)CC(=O)N[C@H](C(=O)N[C@@H](C)C(=O)N[C@@H](CCC(=O)O)C(=O)N[C@@H](Cc1ccccc1)C(=O)O)C(C)C (some centres not stated) (H-EAN[Sta(3ξ)]VAEF-OH)
> 200 | H-TNIKTEEISEVNADAEFR-OH
45 | H-TNIKTEEISEVNLLAEFR-OH
> 200 | H-TNIKTEEISEVNRDAEFR-OH
> 200 | H-TNIKTEEISEVNEDAEFR-OH
0.04 | CC(C)C[C@H](NC(=O)[C@H](CC(N)=O)NC(=O)[C@@H](NC(=O)[C@@H](N)CCC(=O)O)C(C)C)C(O)CC(=O)N[C@H](C(=O)N[C@@H](C)C(=O)N[C@@H](CCC(=O)O)C(=O)N[C@@H](Cc1ccccc1)C(=O)O)C(C)C (some centres not stated) (H-EVN[Sta(3ξ)]VAEF-OH)
1.2 | CSCC[C@H](NC(=O)[C@@H](NC(C)=O)C(C)C)C(=O)N[C@@H](CC(C)C)C(O)CC(=O)N[C@H](C(=O)N[C@@H](C)C(=O)N[C@@H](CCC(=O)O)C(=O)N[C@@H](C)C(=O)O)C(C)C (some centres not stated) (Ac-VM[Sta(3ξ)]VAEA-OH)
60 | CC[C@H](C)[C@H](NC(=O)[C@H](CCC(=O)O)NC(=O)[C@H](CCC(=O)O)NC(=O)[C@@H](NC(=O)[C@@H](N)CCCCN)[C@@H](C)O)C(=O)N[C@@H](CO)C(=O)N[C@@H](CCC(=O)O)C(=O)N[C@H](C(=O)N[C@@H](CC(N)=O)C(=O)N[C@@H](CC(C)C)[C@@H](O)CC(=O)N[C@@H](CC(=O)O)C(=O)N[C@@H](C)C(=O)N[C@@H](CCC(=O)O)C(=O)N[C@@H](Cc1ccccc1)C(=O)N[C@@H](CCCN=C(N)N)C(=O)O)C(C)C (H-KTEEISEVN[Sta]DAEFR-OH)
> 200 | H-TNIKTEEISEVNMDAEFR-OH
20 | CSCC[C@H](NC(=O)[C@@H](NC(C)=O)C(C)C)C(=O)N[C@@H](CC(C)C)C(O)CC(=O)N[C@H](C(=O)N[C@@H](C)C(=O)N[C@@H](CCC(=O)O)C(=O)N[C@@H](C)C(=O)O)C(C)(C)C (some centres not stated) (Ac-VM[Sta(3ξ)][Tle]AEA-OH)
> 200 | CSCC[C@H](NC(=O)[C@@H](NC(C)=O)C(C)C)C(=O)NC(CC(C)C)C(O)CC(=O)N1CCC[C@@H]1C(=O)N[C@@H](C)C(=O)N[C@@H](CCC(=O)O)C(=O)N[C@@H](Cc1ccccc1)C(=O)O (some centres not stated)
> 100 | CSCC[C@H](NC(=O)[C@@H](NC(C)=O)C(C)C)C(=O)NC(CC(C)C)C(O)CC(=O)N[C@H](C(=O)O)C(C)C (some centres not stated)

The remaining lines, values behind:

Compound | IC50 [µM]
H-TNIKTEEISEVNFDAEFR-OH | > 200
CSCC[C@H](NC(=O)[C@@H](NC(C)=O)C(C)C)C(=O)N[C@@H](CC(C)C)C(O)CC(=O)N[C@H](C(=O)N[C@@H](C)C(=O)N[C@@H](C)C(=O)N[C@@H](Cc1ccccc1)C(=O)O)C(C)C (some centres not stated) (Ac-VM[Sta(3ξ)]VAAF-OH) | 2
CSCC[C@H](NC(=O)[C@@H](NC(C)=O)C(C)C)C(=O)NC(CC(C)C)C(O)CC(=O)N[C@H](C(=O)N[C@@H](C)C(=O)N[C@@H](CCC(=O)O)C(=O)N[C@@H](Cc1ccccc1)C(=O)O)[C@H](C)O (some centres not stated) | 100
H-TNIKTEEISEVNLAAEFR-OH | > 200
CSCC[C@H](NC(=O)[C@@H](NC(C)=O)C(C)C)C(=O)N[C@@H](CC(C)C)C(O)C[C@H](C(=O)N[C@@H](C)C(=O)N[C@@H](CCC(=O)O)C(=O)N[C@@H](Cc1ccccc1)C(=O)O)C(C)C (some centres not stated) (Ac-VM[LeuΨ(ξCHOHCH2)Val]AEF-OH) | 0.02
CC(C)CC(NC(=O)[C@@H](N)CC(N)=O)C(O)CC(=O)N[C@H](C(=O)N[C@@H](C)C(=O)N[C@@H](CCC(=O)O)C(=O)N[C@@H](Cc1ccccc1)C(=O)O)C(C)C (some centres not stated) (H-N[X1]VAEF-OH) | > 150
CSCC[C@H](NC(=O)[C@@H](NC(C)=O)C(C)C)C(=O)N[C@@H](CC1CCCCC1)C(O)CC(=O)N[C@H](C(=O)N[C@@H](C)C(=O)N[C@@H](CCC(=O)O)C(=O)N[C@@H](Cc1ccccc1)C(=O)O)C(C)C (some centres not stated) (Ac-VM[X5]VAEF-OH) | 5
CC[C@H](C)[C@H](NC(=O)[C@H](CCC(=O)O)NC(=O)[C@H](CCC(=O)O)NC(=O)[C@@H](NC(=O)[C@@H](N)CCCCN)[C@@H](C)O)C(=O)N[C@@H](CO)C(=O)N[C@@H](CCC(=O)O)C(=O)N[C@H](C(=O)N[C@@H](CC(N)=O)C(=O)N[C@@H](CC(C)C)[C@H](O)CC(=O)N[C@@H](CC(=O)O)C(=O)N[C@@H](C)C(=O)N[C@@H](CCC(=O)O)C(=O)N[C@@H](Cc1ccccc1)C(=O)O)C(C)C (H-KTEEISEVN[X3]DAEF-OH) | > 200
CSCC[C@H](NC(=O)[C@@H](NC(C)=O)C(C)C)C(=O)NC(CC(C)C)C(O)CC(=O)N[C@H](C(=O)N[C@@H](C)C(=O)N[C@@H](CCC(=O)O)C(=O)O)C(C)C (some centres not stated) (Ac-VM[X1]VAE-OH) | 1
CC[C@H](C)[C@H](NC(=O)[C@H](CCC(=O)O)NC(=O)[C@H](CCC(=O)O)NC(=O)[C@@H](NC(=O)[C@@H](N)CCCCN)[C@@H](C)O)C(=O)N[C@@H](CO)C(=O)N[C@@H](CCC(=O)O)C(=O)N[C@H](C(=O)N[C@@H](CC(N)=O)C(=O)N[C@@H](CC(C)C)[C@H](CC(=O)N[C@@H](CC(=O)O)C(=O)N[C@@H](C)C(=O)N[C@@H](CCC(=O)O)C(=O)N[C@@H](Cc1ccccc1)C(=O)O)OC(C)=O)C(C)C (H-KTEEISEVN[X2]DAEF-OH) | > 200
CC[C@H](C)[C@H](NC(=O)[C@H](CCC(=O)O)NC(=O)[C@H](CCC(=O)O)NC(=O)[C@@H](NC(=O)[C@@H](N)CCCCN)[C@@H](C)O)C(=O)N[C@@H](CO)C(=O)N[C@@H](CCC(=O)O)C(=O)N[C@H](C(=O)N[C@@H](CC(N)=O)C(=O)N[C@@H](CC(C)C)[C@@H](O)CC(=O)N[C@H](C(=O)N[C@@H](C)C(=O)N[C@@H](CCC(=O)O)C(=O)N[C@@H](Cc1ccccc1)C(=O)O)C(C)C)C(C)C (H-KTEEISEVN[Sta]VAEF-OH) | 0.03
CSCC[C@H](NC(=O)[C@@H](NC(C)=O)C(C)C)C(=O)N[C@@H](CC(C)C)C(O)CC(=O)N[C@@H](CC(=O)O)C(=O)N[C@@H](C)C(=O)N[C@@H](CCC(=O)O)C(=O)N[C@@H](C)C(=O)O (some centres not stated) (Ac-VM[Sta(3ξ)]DAEA-OH) | > 100
CSCC[C@H](NC(=O)[C@@H](NC(C)=O)C(C)C)C(=O)NC(CC(C)C)C(O)CC(=O)N[C@H](C(=O)N[C@@H](C)C(=O)N[C@@H](CCC(=O)O)C(=O)N[C@@H](Cc1ccccc1)C(=O)O)C(C)C (some centres not stated) (Ac-VM[X1]VAEF-OH) | 0.3
CC(C)C[C@H](NC(=O)[C@H](CC(N)=O)NC(=O)[C@@H](N)C(C)C)C(O)CC(=O)N[C@H](C(=O)N[C@@H](C)C(=O)N[C@@H](CCC(=O)O)C(=O)N[C@@H](Cc1ccccc1)C(=O)O)C(C)C (some centres not stated) (H-VN[Sta(3ξ)]VAEF-OH) | 9
CC(=O)N[C@H](C(=O)N[C@@H](CC(N)=O)C(=O)NC(CC(C)C)C(O)CC(=O)N[C@H](C(=O)N[C@@H](C)C(=O)N[C@@H](CCC(=O)O)C(=O)N[C@@H](Cc1ccccc1)C(=O)O)C(C)C)C(C)C (some centres not stated) (Ac-VN[X1]VAEF-OH) | 0.5
H-TNIKTEEISEVNLKAEFR-OH | 40
H-TNIKTEEISEVNGDAEFR-OH | > 200
H-TNIKTEEISEVNTDAEFR-OH | > 200
H-TNIKTEEISEVNLGAEFR-OH | 119
H-TNIKTEEISEVNLDAEFR-OH | > 200
CSCC[C@H](NC(=O)[C@@H](NC(C)=O)C(C)C)C(=O)NC(CC(C)C)C(O)CC(=O)N[C@H](C(=O)N[C@@H](C)C(=O)O)C(C)C (some centres not stated) (Ac-VM[X1]VA-OH) | > 100
CSCC[C@H](NC(=O)[C@@H](NC(C)=O)C(C)C)C(=O)NC(CC(C)C)C(O)CC(=O)N[C@@H](Cc1ccccc1)C(=O)N[C@@H](C)C(=O)N[C@@H](CCC(=O)O)C(=O)N[C@@H](Cc1ccccc1)C(=O)O (some centres not stated) (Ac-VM[X1]FAEF-OH) | 15
